Reference: patent US8741897B2, “Glucocorticoid mimetics, methods of making them, pharmaceutical compositions and uses thereof” (Boehringer Ingelheim Pharmaceuticals Inc., priority 2003, dated 2014)

Test system: glucocorticoid receptor function
Assay: one or more of the above assays (GR binding and glucocorticoid receptor cell assays: aromatase, IL-6, TAT, MMTV-Luc, IL-8, ICAM-Luc)
Assay type: cell-based
Settings: assay not specified per compound

Compound	activity as agonists of the glucocorticoid receptor function in one or more of the above assays
CC(C)(CC(O)(Cc1cc2cc(-c3cncnc3)ccc2[nH]1)C(F)(F)F)c1cc(F)cc2c1OCC2 (stereo not drawn) [1,1,1-Trifluoro4-(5-fluoro-2,3-dihydrobenzofuran-7-yl)-4-methyl-2-(5-pyrimidin-5-yl-1H-indol-2-ylmethyl)pentan-2-ol]	potent agonists
COc1ccc(-c2cncnc2)cc1C(C)(C)CC(O)(Cc1cc2cc(OC(C)C)ncc2[nH]1)C(F)(F)F (stereo not drawn) [1,1,1-Trifluoro-2-(5-isopropoxy-1H-pyrrolo[2,3-c]pyridin-2-ylmethyl)-4-(2-methoxy-5-pyrimidin-5-ylphenyl)-4-methylpentan-2-ol]	potent agonists
CC(C)(CC(O)(Cc1cc2cc(Br)ccc2[nH]1)C(F)(F)F)c1cc(Cl)cc2c1OCC2 (stereo not drawn) [2-(5-Bromo-1H-indol-2-ylmethyl)-4-(5-chloro-2,3-dihydrobenzofuran-7-yl)-1,1,1-trifluoro-4-methylpentan-2-ol]	potent agonists
COc1ccc(Br)cc1C(C)(C)CC(O)(Cc1cc2cc(N(C)C)ncc2[nH]1)C(F)(F)F (stereo not drawn) [4-(5-Bromo-2-methoxyphenyl)-2-(5-dimethylamino-1H-pyrrolo[2,3-c]pyridin-2-ylmethyl)-1,1,1-trifluoro-4-methylpentan-2-ol]	potent agonists
CC(C)(CC(O)(Cc1cc2cc(-c3cccnc3)ccc2[nH]1)C(F)(F)F)c1cc(F)cc2c1OCC2 (stereo not drawn) [1,1,1-Trifluoro-4-(5-fluoro-2,3-dihydrobenzofuran-7-yl)-4-methyl-2-(5-pyridin-3-yl-1H-indol-2-ylmethyl)pentan-2-ol]	potent agonists
Cc1c(CC(O)(CC(C)(C)c2cc(Cl)cc3c2OCC3)C(C)C)[nH]c2cnccc12 (stereo not drawn) [5-(5-Chloro-2,3-dihydrobenzofuran-7-yl)-2,5-dimethyl-3-(3-methyl-1H-pyrrolo[2,3-c]pyridin-2-ylmethyl)hexan-3-ol]	agonists
COc1ccc(-c2cncnc2)cc1C(C)(C)CC(O)(Cc1cc2ccncc2[nH]1)C(F)(F)F (stereo not drawn) [1,1,1-Trifluoro-4-(2-methoxy-5-pyrimidin-5-ylphenyl)-4-methyl-2-(1H-pyrrolo[2,3-c]pyridin-2-ylmethyl)pentan-2-ol]	potent agonists
CC(C)(CC(O)(Cc1cc2ccncc2[nH]1)C1CC1)c1cc(Cl)cc2c1OCC2 (stereo not drawn) [4-(5-Chloro-2,3-dihydrobenzofuran-7-yl)-2-cyclopropyl-4-methyl-1-(1H-pyrrolo[2,3-c]pyridin-2-yl)pentan-2-ol]	agonists
COc1ccc(-c2cccnc2)cc1C(C)(C)CC(O)(Cc1[nH]c2cnccc2c1C)C(F)(F)F (stereo not drawn) [1,1,1-Trifluoro-4-(2-methoxy-5-pyridin-3-ylphenyl)-4-methyl-2-(3-methyl-1H-pyrrolo[2,3-c]pyridin-2-ylmethyl)pentan-2-ol]	potent agonists
COc1ccc(F)cc1C(C)(C)CC(O)(Cc1cc2ccncc2[nH]1)C(F)F (stereo not drawn) [1,1-Difluoro-4-(5-fluoro-2-methoxyphenyl)-4-methyl-2-(1H-pyrrolo[2,3-c]pyridin-2-ylmethyl)pentan-2-ol]	agonists
CCC(=O)c1ccc2[nH]c(CC(O)(CC(C)(C)c3cc(Cl)cc4c3OCC4)C(F)(F)F)cc2n1 (stereo not drawn) [1-{2-[4-(5-Chloro-2,3-dihydrobenzofuran-7-yl)-2-hydroxy-4-methyl-2-trifluoromethylpentyl]-1H-pyrrolo[3,2-b]pyridin-5-yl}propan-1-one]	potent agonists
CC(C)(CC(O)(Cc1cc2cnccc2[nH]1)C(C)(C)C)c1cc(Cl)cc2c1OCC2 (stereo not drawn) [5-(5-Chloro-2,3-dihydrobenzofuran-7-yl)-2,2,5-trimethyl-3-(1H-pyrrolo[3,2-c]pyridin-2-ylmethyl)hexan-3-ol]	agonists
CC(C)(CC(O)(Cc1cc2nc(N3CCCC3)ncc2[nH]1)C(F)(F)F)c1cc(Cl)cc2c1OCC2 (stereo not drawn) [4-(5-Chloro-2,3-dihydrobenzofuran-7-yl)-1,1,1-trifluoro-4-methyl-2-(2-pyrrolidin-1-yl-5H-pyrrolo[3,2-d]pyrimidin-6-ylmethyl)pentan-2-ol]	potent agonists
CC(C)Oc1cc2cc(CC(O)(CC(C)(C)c3ccccc3)C(F)(F)F)[nH]c2cn1 (stereo not drawn) [1,1,1-Trifluoro-2-(5-isopropoxy-1H-pyrrolo[2,3-c]pyridin-2-ylmethyl)-4-methyl-4-phenylpentan-2-ol]	potent agonists
COc1ccc2[nH]c(CC(O)(CC(C)(C)c3cc(Cl)cc4c3OCC4)C(F)(F)F)cc2n1 (stereo not drawn) [4-(5-Chloro-2,3-dihydrobenzofuran-7-yl)-1,1,1-trifluoro-2-(5-methoxy-1H-pyrrolo[3,2-b]pyridin-2-ylmethyl)-4-methylpentan-2-ol]	potent agonists
CC(C)(CC(O)(Cn1ccc2c1CCCC2=O)C(F)(F)F)c1cc(-c2cccnc2)ccc1O (stereo not drawn) [1-[2-Hydroxy-4-(2-hydroxy-5-pyridin-3-ylphenyl)-4-methyl-2-trifluoromethylpentyl]-1,5,6,7-tetrahydroindol-4-one]	agonists
COc1ccc(Br)cc1C(C)(C)CC(O)(Cc1cc2ccncc2[nH]1)C(F)(F)F (stereo not drawn) [4-(5-Bromo-2-methoxyphenyl)-1,1,1-trifluoro-4-methyl-2-(1H-pyrrolo[2,3-c]pyridin-2-ylmethyl)pentan-2-ol]	potent agonists
COc1ccc(-c2cncnc2)cc1C(C)(C)CC(O)(Cc1cc2cc(N(C)C)ncc2[nH]1)C(F)(F)F (stereo not drawn) [2-(5-Dimethylamino-1H-pyrrolo[2,3-c]pyridin-2-ylmethyl)-1,1,1-trifluoro-4-(2-methoxy-5-pyrimidin-5-ylphenyl)-4-methylpentan-2-ol]	potent agonists
COc1ccc(F)cc1C(C)(C)CC(O)(Cc1cc2cnccc2[nH]1)C(C)(C)C (stereo not drawn) [5-(5-Fluoro-2-methoxyphenyl)-2,2,5-trimethyl-3-(1H-pyrrolo[3,2-c]pyridin-2-ylmethyl)hexan-3-ol]	agonists
COc1nccc2[nH]c(CC(O)(CC(C)(C)c3cc(F)ccc3C)C(F)(F)F)cc12 (stereo not drawn) [1,1,1-Trifluoro-4-(5-fluoro-2-methylphenyl)-2-(4-methoxy-1H-pyrrolo[3,2-c]pyridin-2-ylmethyl)-4-methylpentan-2-ol]	potent agonists
CC(=O)c1ccc2[nH]c(CC(O)(CC(C)(C)c3cc(Cl)cc4c3OCC4)C(F)(F)F)cc2n1 (stereo not drawn) [1-{2-[4-(5-Chloro-2,3-dihydrobenzofuran-7-yl)-2-hydroxy-4-methyl-2-trifluoromethylpentyl]-1H-pyrrolo[3,2-b]pyridin-5-yl}ethanone]	potent agonists
Cc1ccc(F)cc1C(C)(C)CC(O)(Cc1cc2ccncc2[nH]1)C(C)C (stereo not drawn) [5-(5-Fluoro-2-methylphenyl)-2,5-dimethyl-3-(1H-pyrrolo[2,3-c]pyridin-2-ylmethyl)hexan-3-ol]	agonists
CC(C)(CC(O)(Cc1cc2cc(N3CCCCC3)ncc2[nH]1)C(F)(F)F)c1cccc(F)c1 (stereo not drawn) [1,1,1-Trifluoro-4-(3-fluorophenyl)-4-methyl-2-(5-piperidin-1-yl-1H-pyrrolo[2,3-c]pyridin-2-ylmethyl)pentan-2-ol]	potent agonists
COc1ccc(-c2cncnc2)cc1C(C)(C)CC(O)(Cc1cc2cc(O)ncc2[nH]1)C(F)(F)F (stereo not drawn) [2-[2-Hydroxy-4-(2-methoxy-5-pyrimidin-5-ylphenyl)-4-methyl-2-trifluoromethylpentyl]-1H-pyrrolo[2,3-c]pyridin-5-ol]	potent agonists
Cc1ccc(F)cc1C(C)(C)CC(O)(Cc1cc2cnccc2[nH]1)C(C)C (stereo not drawn) [5-(5-Fluoro-2-methylphenyl)-2,5-dimethyl-3-(1H-pyrrolo[3,2-c]pyridin-2-ylmethyl)hexan-3-ol]	agonists
Cc1ccc(F)cc1C(C)(C)CC(O)(Cc1cc2cc(-c3ccccc3)ncc2[nH]1)C(C)C (stereo not drawn) [5-(5-Fluoro-2-methylphenyl)-2,5-dimethyl-3-(5-phenyl-1H-pyrrolo[2,3-c]pyridin-2-ylmethyl)hexan-3-ol]	agonists
Cc1ccc(F)cc1C(C)(C)CC(O)(Cc1cc2cc(OS(=O)(=O)C(F)(F)F)ncc2[nH]1)C(F)(F)F (stereo not drawn) [Trifluoromethanesulfonic acid 2-[4-(5-fluoro-2-methylphenyl)-2-hydroxy-4-methyl-2-trifluoromethylpentyl]-1H-pyrrolo[2,3-c]pyridin-5-yl ester]	potent agonists
Cc1ccc(F)cc1C(C)(C)CC(O)(Cc1cc2cc(-c3ccccc3)nnc2[nH]1)C(F)(F)F (stereo not drawn)	potent agonists
CC(C)(CC(O)(Cc1cc2cc(-c3ccccc3)ncc2[nH]1)C(F)(F)F)c1cccc(CN2CCOCC2)c1 (stereo not drawn) [1,1,1-Trifluoro-4-methyl-4-(3-morpholin-4-ylmethylphenyl)-2-(5-phenyl-1H-pyrrolo[2,3-c]pyridin-2-ylmethyl)pentan-2-ol]	potent agonists
COc1ccc(-c2ccccc2)cc1C(C)(C)CC(O)(Cc1cc2ccncc2[nH]1)C(F)(F)F (stereo not drawn) [1,1,1-Trifluoro-4-(4-methoxybiphenyl-3-yl)-4-methyl-2-(1H-pyrrolo[2,3-c]pyridin-2-ylmethyl)pentan-2-ol]	potent agonists
